{
  "source": "patent US9850470B2",
  "about": "“Polyene-specific glycosyltransferase derived from Pseudonocardia autotrophica” (INHA-INDUSTRY PARTNERSHIP INSTITUTE, priority 2013, dated 2017)",
  "key": {"[1]": {"assay": "solubility of NPP compared with nystatin", "assay_type": "physicochemical"}, "[2]": {"assay": "hemolytic activity of NPP compared with nystatin", "assay_type": "cell-based"}, "[3]": {"conditions": "relative to nystatin which contains only a saccharide"}, "[4]": {"conditions": "relative to nystatin, which contains only mycosamine"}},
  "data": [
    {"smiles": "CC(=O)NC1C(OC2C(C)OC(OC3/C=C/C=C/C=C/C=C/CC/C=C/C=C/C(C)C(O)C(C)C(C)OC(=O)CC(O)CC(O)CC(O)CCC(O)C(O)CC4(O)CC(O)C(C(=O)O)C(C3)O4)C(O)C2N)OC(CO)C(O)C1O", "note": "(stereo not shown) [NPP, nystatin-like polyene (NPP)]", "values": [
      {"measurement": "solubility compared with nystatin (in words)", "setting": "[1]; [3]", "result": "higher solubility"},
      {"measurement": "higher solubility than nystatin", "setting": "[1]; [4]", "result": "more than 300 fold"},
      {"measurement": "hemolytic activity compared with nystatin (in words)", "setting": "[2]; [3]", "result": "lower hemolytic activity"},
      {"measurement": "lower hemolytic activity than nystatin", "setting": "[2]; [4]", "result": 10, "unit": "fold"}
    ]}
  ]
}
